Assay results taken from paper PMC8826081, “Three-Carbon Linked Dihydroartemisinin-Isatin Hybrids: Design, Synthesis and Their Antiproliferative Anticancer Activity” (Frontiers in Pharmacology, 2022).

Legend:
[1] = system: A549/DOX (doxorubicin-resistant A549 cells); experiment: MTT antiproliferative activity against doxorubicin-resistant A549; format: cell-based; conditions: for IC50: Homo sapiens, MTT assay, doxorubicin-resistant A549 cells
Excerpt: (§1) 3-(4,5-dimethylthiazol-2-yl)-2,5-diphenyltetrazolium bromide (MTT) assay was used to determined the antiproliferative activity of dihydroartemisinin-isatin hybrids 5a-e and 6a-j with three-carbon linker against A549, multidrug-resistant A549/DOX and A549/DDP lung cancer cell lines as well as cytotoxicity towards normal lung epithelial cell line (BEAS-2B). The inhibitory effects were expressed in terms of half maximal inhibitory concentration (IC50) values.
(§2) A549, A549/DOX, and A549/DDP lung cancer cells (2×10^3) were plated in each well of a 96-well plate and were allowed to adhere and spread for 24 h. The […] were added to a final concentration of 100 µM, and the cells were cultured for 24 h at 37 °C. 3-(4,5-dimethyl-2-thiazolyl)-2,5-diphenyltetrazolium bromide (MTT) solution (10 µL) was added to each well, and the cultures were incubated for an additional 4 h. A further 100 µL of […] was added and incubation continued overnight. The absorbance at 540 nm was determined in each well with a 96-well plate reader. The growth of the treated cells was compared with that of untreated cells.

in vitro = conditions: human
Protocol: as §1
(§3) The compounds were dissolved in DMSO with concentrations from 1024 to 1 μg/mL. The NIH/3T3 cells were maintained in culture medium at 37 °C under 5% CO2 atmosphere. Cells were seeded in 96-well plates (1×10^4 cell per well) and allowed to recover for 24 h. After 72 h of exposure, cells were harvested and cell viability was assessed by MTT assay. The CC50 values were calculated by Bliss analysis.

[2] = system: BEAS-2B normal lung epithelial cell line; experiment: MTT cytotoxicity towards normal lung epithelial cells; conditions: IC50(BEAS-2B)/IC50(A549)
Protocol: as §1, §3

[3] = Metabolic stability in mouse liver microsomes; format: in vitro ADME; conditions: in vitro stability
[4] = Pharmacokinetic properties in CD-1 mice; format: in vivo; conditions: mouse, plasma; for bioavailability: 30 mg/kg, read-out: F (bioavailability); for AUC / Cmax / clearance / half-life / Tmax: single intravenous dose of 30 mg/kg; for Tmax: read-out: tmax (peak time) (converted)
Protocol: CD-1 mice model was administered with single intravenous […]) dose of 30 mg/kg to test the pharmacokinetic properties of hybrid 6a, e.
CD-1 mice mice (20-25 g) were used in the pharmacokinetic study, and each treatment group had 3 mice which were dosed with […] suspension at 30 mg/kg by single intravenous (iv) administration. Compounds were suspended in 0.5% CMC for iv, and blood was collected from the jugular vein of each mouse at the following time points: 0.25, 0.5, 1, 2, 4, 6, 8 and 24 h after […] administration. Total area under the concentration time curve (AUC), the elimination half-time (t1/2), the peak concentration (Cmax) and the time to reach peak concentration (Tmax) of samples were determined directly from the experimental data using WinNonlin V6.2.1.

[5] = Metabolic stability in human liver microsomes; format: in vitro ADME; conditions: in vitro stability
A549 lung cancer cells = experiment: MTT antiproliferative activity against A549; format: cell-based; conditions: Homo sapiens; MTT assay, drug-sensitive A549
Excerpt: as §1, §2

[6] = system: A549, A549/DOX and A549/DDP lung cancer cell lines; experiment: MTT antiproliferative activity, summarised over the three lung cancer cell lines; format: cell-based; conditions: for IC50: MTT assay, span of values over the three lung cancer cell lines, read-out: IC50 (range over A549, A549/DOX and A549/DDP); for times superior to cisplatin and doxorubicin: against multidrug-resistant A549/DOX and A549/DDP; for RI (drug resistance index: IC50(MDR A549)/IC50(A549)): span over RI1 and RI2
Excerpt: as §1, §2

[7] = system: A549/DDP (cisplatin-resistant A549 cells); experiment: MTT antiproliferative activity against cisplatin-resistant A549; format: cell-based; conditions: for IC50: Homo sapiens, MTT assay, cisplatin-resistant A549 cells
Excerpt: as §1, §2

Structure (SMILES) | IC50 [1] | RI1 (Resistance index: IC50(A549/DOX)/IC50(A549)) [1] | IC50 (in vitro) | SI (Selectivity index: IC50(BEAS-2B)/IC50(A549)) [2] | Liver microsomes Mouse [3] | bioavailability [4] | AUC [4] | Cmax [4] | clearance [4] | half-life [4] | Tmax [4] | Liver microsomes Human [5] | IC50 (A549 lung cancer cells) | IC50 [6] | times superior to cisplatin and doxorubicin [6] | RI (drug resistance index: IC50(MDR A549)/IC50(A549)) [6] | IC50 [7] | RI2 (Resistance index: IC50(A549/DDP)/IC50(A549)) ([7]; IC50(A549/DDP)/IC50(A549))
C[C@@H]1CC[C@H]2[C@@H](C)C(OCCCN3C(=O)C(=NNC(N)=S)c4cc(F)ccc43)O[C@@H]3O[C@@]4(C)CC[C@@H]1[C@]32OO4 (stereo partly drawn) [6e, 2-(5-fluoro-2-oxo-1-(3-(((3R,5aS,6R,8aS,9R,12R,12aR)-3,6,9-trimethyldecahydro-12H-3,12-epoxy[1,2]dioxepino[4,3-i]isochromen-10-yl)oxy)propyl)indolin-3-ylidene)hydrazine-1-carbothioamide] | 8.93 µM | 1.49 | > 100 µM | >16.6 | 54% | 30.8% | 1670 ng·h/mL | 10.7 µM | 44.8 mL/min/kg | 4.7 h | 0.2 h | 51% | 5.99 µM | 5.72 to 9.84 µM | 1.5–10.8 times | 1.03–1.66 | 6.17 µM | 1.03
C[C@@H]1CC[C@H]2[C@@H](C)C(OCCCN3C(=O)C(=NO)c4ccccc43)O[C@@H]3O[C@@]4(C)CC[C@@H]1[C@]32OO4 (stereo partly drawn) [6a, 3-(hydroxyimino)-1-(3-(((3R,5aS,6R,8aS,9R,12R,12aR)-3,6,9-trimethyldecahydro-12H-3,12-epoxy[1,2]dioxepino[4,3-i]isochromen-10-yl)oxy)propyl)indolin-2-one] | 7.35 µM | 1.28 | > 100 µM | >17.4 | 70% | 39.7% | 2350 ng·h/mL | 18.9 µM | 62.3 mL/min/kg | 3.1 h | 0.267 h | 62% | 5.72 µM | 5.72 to 9.84 µM | 1.5–10.8 times | 1.03–1.66 | 9.84 µM | –
